# Source: patent publication US20190298708A1, “METHODS OF TREATING SUBJECTS WITH AN ELEVATED NEUROFILAMENT LIGHT CHAIN LEVEL” (Coherus Biosciences, Inc., priority 2018, published 2019)
# Assays:
# [1] = tested on: relapsing-remitting multiple sclerosis (RRMS) patients; assay: Correlation of NFL concentration with CE and T2 lesions and EDSS; assay type: in vivo, human; settings: after six months of treatment, all groups combined
# Excerpt: Serum Nfl levels were investigated in longitudinal blood samples. The aims of this study include: • to explore the predictive value of blood NFL concentrations in patients treated with CHS-131 (also known as INT-131), • to determine the kinetics of the response to CHS-131, • to analyze NFL as a marker for the effectiveness of CHS-131 in relapsing-remitting multiple sclerosis (RRMS) patients, • to assess the value of NFL concentrations in comparing the effectiveness of CHS-131 with the effectiveness of placebo, • to correlate blood NFL with radiological and clinical outcome parameters (such as magnetic resonance imaging (MRI) (Gd+ lesion counts, T2 lesion volume), annualized relapse rate (ARR), brain atrophy and correlation with expanded disability status scale (EDSS), • to examine the prognostic value of NFL concentrations by stratification of patients related to disease activity, • to determine the risk of relapse or risk of disease progression, and • to evaluate NFL concentrations as a retreatment predictive biomarker. The correlation between NFL concentration and CE and T2 lesions was evaluated after six months of treatment with CHS-131 (all groups combined). […] The correlation between NFL concentration and EDSS was evaluated after six months of treatment with CHS-131 (all groups combined). […] Increased EDSS indicates increased disability, therefore lowering EDSS is considered effective treatment of multiple sclerosis.
# [2] = tested on: neurofilament light chain (NFL); assay: Blood NFL measurement by Simoa assay in RRMS patients given CHS-131; assay type: in vivo, human
# Procedure: Capture monoclonal antibody (mAB) 47: 3 is buffer exchanged and diluted to 0.3 mg/mL 4×10^6 paramagnetic beads (Quanterix Corporation) are buffer exchanged and activated using 0.5 mg/mL 1-ethyl-3-(3-dimetylaminopropyl) carbodiimide (Quanterix), followed by a 30-minute incubation at room temperature (HulaMixer, Thermo Fischer Scientific). The diluted capture mAB 47:3 is conjugated with the washed and activated paramagnetic beads for a 2-hour incubation at room temperature on a mixer. After the incubation, the beads are washed three times using a magnetic separator and blocked. Next, the conjugated beads are suspended and stored at 4° C.
# The Simoa assay is run on a Simoa HD-1 instrument (Quanterix) using a two-step Assay Neat 20 protocol. Briefly, 100 μL of calibrator/sample in Tris-buffered saline (TBS), 0.1% Tween 20, 1% milk powder, 400 μg/mL Heteroblock (Omega Biologicals), 25 μL conjugated beads in TBS, 0.1% Tween 20, 1% milk powder, 300 μg/mL Heteroblock, and 20 μL of mAB 2:1 (0.1 μg/mL in TBS, 0.1% Tween 20, 1% milk powder, 300 μg/mL Heteroblock) are incubated for 35 minutes 15 seconds (47 cadences with 1 cadence is 45 seconds). Next, the mixture is washed. Then, 100 μL of streptavidin-conjugated […] (150 pM; Quanterix) is added, followed by a 5 minutes 15 second (7-cadence) incubation and wash. The mixture will then be placed on a Simoa HD-1 instrument. Prior to reading, 25 μL Resorufin (3-D-galactopyranoside (Quanterix) is added. The calibrator curve is constructed using the standard from the NFL ELISA (NF-light, UmanDiagnostics). Samples and calibrators are measured in duplicates.
# Serum Nfl levels were investigated in longitudinal blood samples. The aims of this study include: • to explore the predictive value of blood NFL concentrations in patients treated with CHS-131 (also known as INT-131), • to determine the kinetics of the response to CHS-131, • to analyze NFL as a marker for the effectiveness of CHS-131 in relapsing-remitting multiple sclerosis (RRMS) patients, • to assess the value of NFL concentrations in comparing the effectiveness of CHS-131 with the effectiveness of placebo, • to correlate blood NFL with radiological and clinical outcome parameters (such as magnetic resonance imaging (MRI) (Gd+ lesion counts, T2 lesion volume), annualized relapse rate (ARR), brain atrophy and correlation with expanded disability status scale (EDSS), • to examine the prognostic value of NFL concentrations by stratification of patients related to disease activity, • to determine the risk of relapse or risk of disease progression, and • to evaluate NFL concentrations as a retreatment predictive biomarker.
# All patients receiving CHS-131 were orally adminisntered 1 mg or 3 mg CHS-131 daily. All control patients were orally administered a placebo tablet once a day. All patients enrolled in the study were treatment-naïve RRMS for <3 years.
# The human plasma samples used for the analysis were coded and are not individually identifiable because neither the investigator nor any other individuals associated with the investigation or the sponsor can link the specimen to the subject from whom the specimen was collected, either directly or indirectly through coding systems.
# The concentration of NFL […] in subject administered placebo, 1 mg daily CHS-131, and 3 mg daily CHS-131 are reported in Tables 1, 2, and 3, respectively.
# [3] = 1 mg daily CHS-131 oral, Wk0, RRMS patients
# [4] = 1 mg daily CHS-131 oral, Wk12, RRMS patients
# [5] = 1 mg daily CHS-131 oral, Wk24, RRMS patients
# [6] = 1 mg daily CHS-131 oral, Wk48, RRMS patients
# [7] = 3 mg daily CHS-131 oral, Wk0, RRMS patients
# [8] = 3 mg daily CHS-131 oral, Wk12, RRMS patients
# [9] = 3 mg daily CHS-131 oral, Wk24, RRMS patients
# [10] = 3 mg daily CHS-131 oral, Wk48, RRMS patients
smiles,measurement,setting,value
O=S(=O)(Nc1cc(Cl)c(Oc2cnc3ccccc3c2)c(Cl)c1)c1ccc(Cl)cc1Cl [CHS-131],new CE lesions in subjects with lower average levels of NFL,[1]; FIG. 1,fewer new CE lesions
same,new or enlarging T2 lesions in subjects with lower average levels of NFL,[1]; FIG. 2,fewer new or enlarging T2 lesions
same,EDSS in subjects with lower levels of NFL (trend),[1]; FIG. 3,lower EDSS
same,"concentration of NFL, Max",[2]; [3],29 pg/mL
same,"concentration of NFL, Mean",[2]; [3],20.8 pg/mL
same,"concentration of NFL, Median",[2]; [3],19.4 pg/mL
same,"concentration of NFL, Min",[2]; [3],13.3 pg/mL
same,"concentration of NFL, Q1",[2]; [3],19.3 pg/mL
same,"concentration of NFL, Q3",[2]; [3],22.8 pg/mL
same,"concentration of NFL, Max",[2]; [4],160 pg/mL
same,"concentration of NFL, Mean",[2]; [4],27.6 pg/mL
same,"concentration of NFL, Median",[2]; [4],17.9 pg/mL
same,"concentration of NFL, Min",[2]; [4],2.1 pg/mL
same,"concentration of NFL, Q1",[2]; [4],11.7 pg/mL
same,"concentration of NFL, Q3",[2]; [4],32.2 pg/mL
same,"concentration of NFL, Max",[2]; [5],65.5 pg/mL
same,"concentration of NFL, Mean",[2]; [5],22.3 pg/mL
same,"concentration of NFL, Median",[2]; [5],17 pg/mL
same,"concentration of NFL, Min",[2]; [5],3.2 pg/mL
same,"concentration of NFL, Q1",[2]; [5],11.8 pg/mL
same,"concentration of NFL, Q3",[2]; [5],31.5 pg/mL
same,"concentration of NFL, Max",[2]; [6],340 pg/mL
same,"concentration of NFL, Mean",[2]; [6],27.6 pg/mL
same,"concentration of NFL, Median",[2]; [6],17.5 pg/mL
same,"concentration of NFL, Min",[2]; [6],2.6 pg/mL
same,"concentration of NFL, Q1",[2]; [6],10.1 pg/mL
same,"concentration of NFL, Q3",[2]; [6],24.2 pg/mL
same,"concentration of NFL, Max",[2]; [7],73.7 pg/mL
same,"concentration of NFL, Mean",[2]; [7],29.9 pg/mL
same,"concentration of NFL, Median",[2]; [7],19.6 pg/mL
same,"concentration of NFL, Min",[2]; [7],11.7 pg/mL
same,"concentration of NFL, Q1",[2]; [7],11.8 pg/mL
same,"concentration of NFL, Q3",[2]; [7],48.1 pg/mL
same,"concentration of NFL, Max",[2]; [8],117 pg/mL
same,"concentration of NFL, Mean",[2]; [8],23.2 pg/mL
same,"concentration of NFL, Median",[2]; [8],16.4 pg/mL
same,"concentration of NFL, Min",[2]; [8],4.9 pg/mL
same,"concentration of NFL, Q1",[2]; [8],12.2 pg/mL
same,"concentration of NFL, Q3",[2]; [8],28.1 pg/mL
same,"concentration of NFL, Max",[2]; [9],74.9 pg/mL
same,"concentration of NFL, Mean",[2]; [9],20.4 pg/mL
same,"concentration of NFL, Median",[2]; [9],15.9 pg/mL
same,"concentration of NFL, Min",[2]; [9],5.8 pg/mL
same,"concentration of NFL, Q1",[2]; [9],10.4 pg/mL
same,"concentration of NFL, Q3",[2]; [9],26.6 pg/mL
same,"concentration of NFL, Max",[2]; [10],119 pg/mL
same,"concentration of NFL, Mean",[2]; [10],19.3 pg/mL
same,"concentration of NFL, Median",[2]; [10],14.3 pg/mL
same,"concentration of NFL, Min",[2]; [10],4.9 pg/mL
same,"concentration of NFL, Q1",[2]; [10],9 pg/mL
same,"concentration of NFL, Q3",[2]; [10],20.4 pg/mL
